Test [1] concerns the target T1, Estrogen receptor (Rattus norvegicus, UniProt P06211).
T1 sequence (P06211 whole entry): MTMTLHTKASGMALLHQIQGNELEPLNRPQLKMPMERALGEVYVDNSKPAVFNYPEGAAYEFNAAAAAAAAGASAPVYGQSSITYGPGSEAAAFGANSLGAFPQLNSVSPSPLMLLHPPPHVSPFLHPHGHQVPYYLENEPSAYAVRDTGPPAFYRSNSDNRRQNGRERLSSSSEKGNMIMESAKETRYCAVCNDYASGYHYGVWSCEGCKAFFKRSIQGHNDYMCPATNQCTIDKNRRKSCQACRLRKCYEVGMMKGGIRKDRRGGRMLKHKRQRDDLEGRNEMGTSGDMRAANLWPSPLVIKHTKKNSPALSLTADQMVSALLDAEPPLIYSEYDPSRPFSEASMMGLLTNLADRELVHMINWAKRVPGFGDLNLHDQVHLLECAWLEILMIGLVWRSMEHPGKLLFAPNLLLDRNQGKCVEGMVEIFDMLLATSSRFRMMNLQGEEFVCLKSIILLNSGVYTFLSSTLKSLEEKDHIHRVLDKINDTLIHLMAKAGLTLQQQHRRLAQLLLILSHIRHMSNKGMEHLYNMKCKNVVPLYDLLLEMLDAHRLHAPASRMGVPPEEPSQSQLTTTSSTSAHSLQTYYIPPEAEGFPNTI

The target of test [2] is Estrogen receptor beta (Rattus norvegicus, UniProt Q62986).
Test [3] concerns the target Estrogen receptor beta (Mus musculus, UniProt O08537).
The target in test [4] is T2, Estrogen receptor (Mus musculus, UniProt P19785).
T2 sequence (P19785 whole entry): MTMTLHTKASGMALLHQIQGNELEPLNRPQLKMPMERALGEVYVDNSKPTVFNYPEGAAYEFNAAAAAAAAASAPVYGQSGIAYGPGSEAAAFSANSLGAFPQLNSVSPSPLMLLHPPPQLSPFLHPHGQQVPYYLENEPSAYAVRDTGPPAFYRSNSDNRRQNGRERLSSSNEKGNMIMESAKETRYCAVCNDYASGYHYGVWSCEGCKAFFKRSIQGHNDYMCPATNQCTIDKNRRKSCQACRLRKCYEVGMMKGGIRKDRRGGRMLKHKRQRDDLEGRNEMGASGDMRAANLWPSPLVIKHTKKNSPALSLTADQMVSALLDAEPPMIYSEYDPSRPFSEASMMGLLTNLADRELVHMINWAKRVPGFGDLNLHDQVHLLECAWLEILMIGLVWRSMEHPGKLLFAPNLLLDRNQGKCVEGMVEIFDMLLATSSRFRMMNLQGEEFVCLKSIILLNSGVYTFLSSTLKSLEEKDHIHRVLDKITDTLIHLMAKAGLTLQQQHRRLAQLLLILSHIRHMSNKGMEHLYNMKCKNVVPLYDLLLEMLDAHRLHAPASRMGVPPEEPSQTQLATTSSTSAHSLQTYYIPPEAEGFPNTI

The target of test [5] is Estrogen receptor beta (Homo sapiens, UniProt Q92731).
The target of test [6] is T3, Estrogen receptor (Homo sapiens, UniProt P03372).
T3 sequence (P03372 whole entry): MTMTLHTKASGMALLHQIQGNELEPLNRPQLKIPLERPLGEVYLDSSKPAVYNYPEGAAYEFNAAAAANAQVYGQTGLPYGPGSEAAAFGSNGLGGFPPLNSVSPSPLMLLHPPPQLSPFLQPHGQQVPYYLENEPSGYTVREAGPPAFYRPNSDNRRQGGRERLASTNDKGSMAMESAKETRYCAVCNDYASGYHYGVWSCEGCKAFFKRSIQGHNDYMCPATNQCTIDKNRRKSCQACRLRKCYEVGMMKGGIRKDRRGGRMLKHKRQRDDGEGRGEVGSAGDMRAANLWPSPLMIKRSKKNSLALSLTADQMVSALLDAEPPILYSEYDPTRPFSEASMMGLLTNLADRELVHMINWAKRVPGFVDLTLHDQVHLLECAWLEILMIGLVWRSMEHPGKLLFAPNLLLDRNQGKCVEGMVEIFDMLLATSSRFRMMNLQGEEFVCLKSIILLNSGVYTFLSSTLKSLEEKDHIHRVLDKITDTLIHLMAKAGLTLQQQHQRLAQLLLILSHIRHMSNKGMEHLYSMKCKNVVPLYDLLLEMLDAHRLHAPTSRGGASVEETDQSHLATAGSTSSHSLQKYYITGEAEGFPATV

Another test is filed under the species Mus musculus. As to conditions: dose 50 mg/kg.
The species named for test [7] is Rattus norvegicus. Description: Effect of combination of compound and PPT on rat vasomotor instability in terms of tail skin temperature change 15 min after naloxone injection. It counts as functional.
Test [8] concerns Rattus norvegicus. Description: Total bone mineral density in ovariectomized rat when treated with compound at 10 mg/kg dose. The test is classed as functional.
The test system of test [9] is Rattus norvegicus. Description: Trabecular bone mineral density in ovariectomized rat when treated with compound at 10 mg/kg dose. The test is classed as functional, Trabecula.
For test [10], the target named is Estrogen receptor beta (Rattus norvegicus) (UniProt Q62986). As to conditions: Prostate gland.
The target is the same in test [11]. Particulars: Prostate gland. This is another data set of the same source.

The structures appear in SMILES notation. A value given as a limit tells only on which side of the number the result lay.

Chain of Estrogen receptor beta (Mus musculus, UniProt O08537) (O08537 whole entry): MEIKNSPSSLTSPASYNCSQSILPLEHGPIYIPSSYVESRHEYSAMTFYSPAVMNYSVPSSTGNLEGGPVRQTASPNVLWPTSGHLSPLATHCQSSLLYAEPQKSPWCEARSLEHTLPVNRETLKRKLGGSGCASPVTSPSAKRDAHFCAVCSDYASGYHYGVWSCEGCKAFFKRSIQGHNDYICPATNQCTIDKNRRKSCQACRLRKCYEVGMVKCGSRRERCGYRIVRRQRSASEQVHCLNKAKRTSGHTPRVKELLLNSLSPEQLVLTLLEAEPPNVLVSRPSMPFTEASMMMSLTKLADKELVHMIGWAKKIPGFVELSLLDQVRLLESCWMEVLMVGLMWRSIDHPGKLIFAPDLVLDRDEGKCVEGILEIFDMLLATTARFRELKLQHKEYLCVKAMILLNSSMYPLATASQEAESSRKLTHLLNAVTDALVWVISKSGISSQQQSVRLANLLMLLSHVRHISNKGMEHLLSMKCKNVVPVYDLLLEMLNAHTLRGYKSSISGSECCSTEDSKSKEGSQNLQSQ
Chain of Estrogen receptor beta (Rattus norvegicus, UniProt Q62986) (Q62986 whole entry): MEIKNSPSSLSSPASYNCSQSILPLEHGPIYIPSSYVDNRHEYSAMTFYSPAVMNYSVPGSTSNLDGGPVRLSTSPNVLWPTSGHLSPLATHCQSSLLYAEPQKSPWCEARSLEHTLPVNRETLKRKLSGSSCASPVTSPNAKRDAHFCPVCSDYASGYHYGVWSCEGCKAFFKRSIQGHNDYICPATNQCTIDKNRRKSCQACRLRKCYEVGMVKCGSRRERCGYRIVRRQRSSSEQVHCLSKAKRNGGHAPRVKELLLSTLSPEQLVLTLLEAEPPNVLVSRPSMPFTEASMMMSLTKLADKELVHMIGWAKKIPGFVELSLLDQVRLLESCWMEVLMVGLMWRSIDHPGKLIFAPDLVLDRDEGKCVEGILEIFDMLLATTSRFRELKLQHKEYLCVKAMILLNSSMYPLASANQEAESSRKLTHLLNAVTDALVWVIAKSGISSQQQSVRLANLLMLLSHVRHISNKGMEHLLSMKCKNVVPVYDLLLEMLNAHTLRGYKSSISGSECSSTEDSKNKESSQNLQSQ
Chain of Estrogen receptor beta (Rattus norvegicus) (Q62986 whole entry): as above
Chain of Estrogen receptor beta (Homo sapiens, UniProt Q92731) (Q92731 whole entry): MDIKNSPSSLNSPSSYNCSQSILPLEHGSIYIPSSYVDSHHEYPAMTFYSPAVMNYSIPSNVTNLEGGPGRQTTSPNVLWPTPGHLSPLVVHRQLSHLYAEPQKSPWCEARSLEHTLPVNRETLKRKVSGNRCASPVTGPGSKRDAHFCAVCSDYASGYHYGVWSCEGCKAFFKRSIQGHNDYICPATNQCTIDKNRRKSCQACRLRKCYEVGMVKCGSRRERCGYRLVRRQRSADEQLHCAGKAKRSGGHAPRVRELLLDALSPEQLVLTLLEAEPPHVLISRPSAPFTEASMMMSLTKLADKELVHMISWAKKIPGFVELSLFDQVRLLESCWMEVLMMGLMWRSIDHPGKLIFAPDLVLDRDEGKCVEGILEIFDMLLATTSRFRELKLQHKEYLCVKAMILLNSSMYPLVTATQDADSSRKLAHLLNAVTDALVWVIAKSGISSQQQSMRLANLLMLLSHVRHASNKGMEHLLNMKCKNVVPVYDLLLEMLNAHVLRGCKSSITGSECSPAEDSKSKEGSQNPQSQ
Description for Mus musculus: Weight of mouse uterine when treated with compound at 50 mg/kg dose was determined

As to `Oc1ccc(-c2noc3cc(O)ccc23)cc1`, the half-inhibitory concentration (IC50) on Estrogen receptor [1] was 716 nM; at Estrogen receptor beta [2] it was 36 nM; at Estrogen receptor beta [3], 13 nM; against Estrogen receptor [4], 1090 nM.
As for `COc1cc(O)c(Br)c2nc(-c3ccc(O)c(F)c3)oc12`, the IC50 turned out to be 52 nM on Estrogen receptor beta [5] and 2670 nM on Estrogen receptor [6].
Take `C=Cc1cc(O)cc2nc(-c3c(F)cc(O)cc3F)oc12`: the values for the half-maximal inhibitory concentration (IC50) against Estrogen receptor beta [5] and at Estrogen receptor [6] were 2.2 nM and 249 nM, respectively. The Weight in the test listed under Mus musculus turned out to be 10 mg.
Regarding `CCCCOc1cc(-c2nc3ccc(O)cc3o2)ccc1O`, the IC50 stood at 3660 nM against Estrogen receptor beta [5] and 6240 nM at Estrogen receptor [6].
Regarding `Oc1ccc(-c2nc3cc(O)cc(/C=C\Br)c3o2)c(F)c1`, the concentration for half-maximal inhibition (IC50) against Estrogen receptor beta [5] was found to be 16 nM; at Estrogen receptor [6], 196 nM.
`Oc1ccc2c(-c3ccccc3O)noc2c1`: on Estrogen receptor [6], the IC50 amounted to 3000 nM.
With `COC(=O)c1cc(O)cc2nc(-c3ccc(O)cc3)oc12`, the IC50 against Estrogen receptor beta [5] was 356 nM; against Estrogen receptor [6], greater than 5000 nM.
On to `Oc1cc(/C=C\F)c2oc(-c3ccc(O)c(F)c3)nc2c1`, for which the half-maximal inhibitory concentration (IC50) at Estrogen receptor beta [5] was determined as 3.2 nM; against Estrogen receptor [6] it was 376 nM. In addition, the Weight in the test filed under Mus musculus was 9.8 mg.
As to `N#Cc1cc(O)cc2nc(-c3ccc(O)cc3F)oc12`, the IC50 against Estrogen receptor beta [5] was 2.4 nM; at Estrogen receptor [6], 138 nM.
The corresponding values for `N#CCc1cc(O)ccc1-c1noc2cc(O)ccc12` are 96 nM and 717 nM.
As to `O=C(O)c1cc(O)cc2nc(-c3ccc(O)cc3)oc12`, the IC50 against Estrogen receptor beta [5] and on Estrogen receptor [6] was greater than 5000 nM in each case.
For the molecule `Oc1ccc(-c2noc3ccc(O)cc23)c(O)c1`, the results for the IC50 against Estrogen receptor beta [5] and against Estrogen receptor [6] were 138 nM and 4070 nM, respectively.
The molecule `C=Cc1cc(O)cc2nc(-c3ccc(O)cc3F)oc12` displayed a Weight in the test listed under Mus musculus of 10.3 mg.
For `Oc1ccc(-c2nc3cc(O)ccc3o2)cc1`, the values for the IC50 against Estrogen receptor beta [2], against Estrogen receptor beta [3] and on Estrogen receptor [4] were 2.2 nM, 9.9 nM and 1630 nM, respectively.
As to `C/C=C\c1cc(O)cc2nc(-c3ccc(O)cc3)oc12`, the IC50 was determined as 1.42 nM against Estrogen receptor beta [5] and 775 nM at Estrogen receptor [6].
In the case of `COc1c(Br)c(O)c(Br)c2nc(-c3ccc(O)c(F)c3)oc12`, the IC50 against Estrogen receptor beta [5] was 64 nM; against Estrogen receptor [6], 559 nM.
Turning to `Oc1ccc(-c2noc3ccccc23)c(O)c1`, the concentration for half-maximal inhibition (IC50) against Estrogen receptor beta [5] was 718 nM; against Estrogen receptor [6] it was 6100 nM.
In the case of `C=CCc1cc(O)cc2nc(-c3ccc(O)cc3F)oc12`, the figures for the IC50 against Estrogen receptor beta [5] and on Estrogen receptor [6] were 3 nM and 98 nM, respectively.
Take `Oc1ccc(-c2nc3cc(O)cc(Br)c3o2)cc1`: the IC50 on Estrogen receptor [1] was 132 nM; at Estrogen receptor beta [2], 1.2 nM; against Estrogen receptor beta [3] it was 1.7 nM; against Estrogen receptor [4] it was 132 nM. Besides, the Activity in the test listed under Rattus norvegicus [7] is 1.9. For the same molecule, the Density came to 525.51 mg/cm3 in the test with Rattus norvegicus [8] and 287.56 mg/cm3 in the test on Rattus norvegicus [9].
Turning to `CC(C)C(=O)Nc1ccc([N+](=O)[O-])c(C(F)(F)F)c1`, the Weight in test [10] amounted to 15.2 mg.
As for `C=Cc1cc(O)cc2nc(-c3ccc(O)cc3C)oc12`, the IC50 is 27 nM against Estrogen receptor beta [5] and 1120 nM at Estrogen receptor [6].
Regarding `Oc1cc(Br)c2oc(-c3ccc(O)c(F)c3)nc2c1`, the IC50 on Estrogen receptor [1] was 171 nM; at Estrogen receptor beta [2], 2 nM; against Estrogen receptor beta [3], 2.7 nM; on Estrogen receptor [4] it was 199 nM. In addition, the Density is 501.4 mg/cm3 in the test with Rattus norvegicus [8] and 312.34 mg/cm3 in the test on Rattus norvegicus [9]. In addition, the Weight in test [11] amounted to 119 mg.
For `O/N=C/c1cc(O)ccc1-c1noc2cc(O)ccc12`, the values for the half-maximal inhibitory concentration (IC50) at Estrogen receptor beta [5] and against Estrogen receptor [6] were 383 nM and 2390 nM, respectively.
For the molecule `Oc1ccc(-c2nc3cc(O)cc(/C=C\Br)c3o2)cc1`, the IC50 at Estrogen receptor beta [5] is 45 nM; at Estrogen receptor [6], 4650 nM.
The corresponding values for `N#Cc1cc(O)ccc1-c1noc2cc(O)ccc12` are 12 nM and 264 nM.
With `C=Cc1cc(O)cc2nc(-c3ccc(O)cc3)oc12`, half-maximal inhibition on Estrogen receptor [6] (IC50) required 447 nM.
As to `Cc1cc(O)c2cccc(-c3nc4ccc(O)cc4o3)c2c1`, the IC50 against Estrogen receptor beta [5] stood at 6 nM; against Estrogen receptor [6], 163 nM.
As to `N#Cc1cc(O)cc2nc(-c3ccc(O)cc3)oc12`, the results for the IC50 against Estrogen receptor [1], against Estrogen receptor beta [2] and against Estrogen receptor beta [3] were 362 nM, 4 nM and 4.3 nM, respectively. Besides, the Activity in the test listed under Rattus norvegicus [7] turned out to be 2.7.
`C=CCc1cc(O)cc2nc(-c3ccc(O)cc3)oc12`: the IC50 was 13 nM on Estrogen receptor beta [5] and 727 nM at Estrogen receptor [6]. For the same molecule, the Weight in the test filed under Mus musculus is on record as 10 mg.
On to `Oc1ccc(-c2nc3ccc(O)cc3o2)cc1`, for which the IC50 is 821 nM against Estrogen receptor [1], 20 nM on Estrogen receptor beta [2], 9.5 nM on Estrogen receptor beta [3] and 1340 nM against Estrogen receptor [4].
With `O=Cc1cc(O)cc2nc(-c3ccc(O)cc3)oc12`, the IC50 worked out at 2250 nM against Estrogen receptor [1], 29 nM against Estrogen receptor beta [2] and 16.5 nM against Estrogen receptor beta [3].
As for `C=Cc1cc(O)cc2nc(-c3cc(F)c(O)cc3F)oc12`, the figures for the IC50 at Estrogen receptor beta [5] and against Estrogen receptor [6] were 66 nM and 4040 nM, respectively.
In turn, `Oc1ccc2nc(-c3cccc(O)c3O)oc2c1` yielded an IC50 against Estrogen receptor [6] of 2350 nM.
Take `C/C=C\c1cc(O)cc2nc(-c3ccc(O)cc3F)oc12`: the IC50 at Estrogen receptor beta [5] came out at 23 nM; at Estrogen receptor [6], 539 nM.
The corresponding values for `Oc1ccc2c(-c3nc4cc(F)c(O)cc4o3)cccc2c1` are 46 nM and 434 nM.
`C=Cc1cc(O)cc2nc(-c3ccc(O)c(F)c3)oc12` [PRINABEREL]: the half-inhibitory concentration (IC50) was determined as 618 nM on Estrogen receptor [1], 3.14 nM against Estrogen receptor beta [2], 3.7 nM at Estrogen receptor beta [3] and 746 nM at Estrogen receptor [4]. The same molecule registered a Weight in [11] of 132 mg.
The molecule `Oc1ccc2nc(-c3ccc(O)c(F)c3)oc2c1` had an IC50 against Estrogen receptor [6] of 8430 nM.

Broadly, the IC50 is the point on the concentration scale where inhibition reaches its midpoint. Low values mean higher potency, high ones lower potency.

Source of the values: ChEMBL document CHEMBL1138773, “Design and synthesis of aryl diphenolic azoles as potent and selective estrogen receptor-beta ligands” (J Med Chem, 2004).
